Laboratory results from patent publication US6897316B2, “Substituted 2-phenyl-4-quinolone-3-carboxylic acid compounds and their use as antitumor agents” (China Medical University, priority 2003, dated 2005).

How the values were obtained:
[1] = test system: panel of 39 human cancer cell lines; test: Growth inhibition against human cancer cell line panel (Sulforhodamine B, 48 h); type: cell-based
Method: (§1) Compound IX-8 was evaluated growth inhibition activities against a panel of 39 human cancer cell lines including Human breast cancer MDA-MB-231 and the following human cancer cell lines were generously distributed by the National Cancer Institute (Frederick, Md.): lung cancer, NCI-H23, NCI-H226, NCI-H522, NCI-H460, A-549, DMS273 and DMS114; colon cancer, HGC-2998, KM-12, HT-29, HCT-15, and HCT-116; ovarian cancer, OVCAR-3, OVCAR-4, OVCAR-5, OVCAR-8, and SKOV-3; breast cancer, MCF-7; renal cancer, RXF-631L and ACHN; melanoma, LOX-IMVI; brain tumor, U251, SF-295, SF-539, SF-268, SNB-75, and SNB-78, and prostate cancer, DU-145 and PC-3. […]
(§2) The details of measuring cell growth inhibition are described elsewhere [Monks, A., Scudiero, D., Skehan, P., Shoemaker, R., Paull, K., Vistica, D., Hose, C., Langley, J., Cronise, P., Vaigro-Wolff, A., Gray-Goodrich, M., Campbell, H., Mayo, J., Boyd, M. Feasibility of a high-flux anticancer drug screen using a diverse panel of cultured human tumor cell lines. […] Then, the cell growth was determined according to the Sulforhodamine B assay, described by Skehan et al [Skehan, P., Storeng, R., Scudiero, D., Monks, A., McMahon, J., Vistica, D., Warren, J. T., Bokesch, H., Kenney, S., Boyd, M. R. New calorimetric cytotoxicity assay for anticancer-drug screening. […]

HGC2998 (colon cancer) = test: Growth inhibition in human cancer cell line panel, HGC2998; type: cell-based; conditions: 48 hr, SRB
Method: as §1, §2

With `COc1ccc2[nH]c(-c3cccc(F)c3)c(C(=O)O)c(=O)c2c1` [IX-8, 3′-Fluoro-6-methoxy-2-phenyl-4-quinolone-3-carboxylic acid] the “activity against cancer cell line panel in words” value ([1]; cell line panel) was “active against most cancer cell lines”, the “MG-MID (mean growth midpoint) of log GI50” value ([1]; mean over cell line panel, 10^−4 to 10^−8 M) was −6.22 M and the GI50 (HGC2998 (colon cancer)) was 0.138 µM.
